From ChEMBL document CHEMBL1144632, “The rational design of inhibitors of nitric oxide formation by inducible nitric oxide synthase” (Bioorg Med Chem Lett, 2007)
Activity calls are given as the source filed them. The rule behind the calls is not given here.

Target: Nitric oxide synthase 1 (Homo sapiens) (UniProt P29475)
Assay: Inhibition of bNOS

Chain of Nitric oxide synthase 1 (Homo sapiens) (P29475 whole entry): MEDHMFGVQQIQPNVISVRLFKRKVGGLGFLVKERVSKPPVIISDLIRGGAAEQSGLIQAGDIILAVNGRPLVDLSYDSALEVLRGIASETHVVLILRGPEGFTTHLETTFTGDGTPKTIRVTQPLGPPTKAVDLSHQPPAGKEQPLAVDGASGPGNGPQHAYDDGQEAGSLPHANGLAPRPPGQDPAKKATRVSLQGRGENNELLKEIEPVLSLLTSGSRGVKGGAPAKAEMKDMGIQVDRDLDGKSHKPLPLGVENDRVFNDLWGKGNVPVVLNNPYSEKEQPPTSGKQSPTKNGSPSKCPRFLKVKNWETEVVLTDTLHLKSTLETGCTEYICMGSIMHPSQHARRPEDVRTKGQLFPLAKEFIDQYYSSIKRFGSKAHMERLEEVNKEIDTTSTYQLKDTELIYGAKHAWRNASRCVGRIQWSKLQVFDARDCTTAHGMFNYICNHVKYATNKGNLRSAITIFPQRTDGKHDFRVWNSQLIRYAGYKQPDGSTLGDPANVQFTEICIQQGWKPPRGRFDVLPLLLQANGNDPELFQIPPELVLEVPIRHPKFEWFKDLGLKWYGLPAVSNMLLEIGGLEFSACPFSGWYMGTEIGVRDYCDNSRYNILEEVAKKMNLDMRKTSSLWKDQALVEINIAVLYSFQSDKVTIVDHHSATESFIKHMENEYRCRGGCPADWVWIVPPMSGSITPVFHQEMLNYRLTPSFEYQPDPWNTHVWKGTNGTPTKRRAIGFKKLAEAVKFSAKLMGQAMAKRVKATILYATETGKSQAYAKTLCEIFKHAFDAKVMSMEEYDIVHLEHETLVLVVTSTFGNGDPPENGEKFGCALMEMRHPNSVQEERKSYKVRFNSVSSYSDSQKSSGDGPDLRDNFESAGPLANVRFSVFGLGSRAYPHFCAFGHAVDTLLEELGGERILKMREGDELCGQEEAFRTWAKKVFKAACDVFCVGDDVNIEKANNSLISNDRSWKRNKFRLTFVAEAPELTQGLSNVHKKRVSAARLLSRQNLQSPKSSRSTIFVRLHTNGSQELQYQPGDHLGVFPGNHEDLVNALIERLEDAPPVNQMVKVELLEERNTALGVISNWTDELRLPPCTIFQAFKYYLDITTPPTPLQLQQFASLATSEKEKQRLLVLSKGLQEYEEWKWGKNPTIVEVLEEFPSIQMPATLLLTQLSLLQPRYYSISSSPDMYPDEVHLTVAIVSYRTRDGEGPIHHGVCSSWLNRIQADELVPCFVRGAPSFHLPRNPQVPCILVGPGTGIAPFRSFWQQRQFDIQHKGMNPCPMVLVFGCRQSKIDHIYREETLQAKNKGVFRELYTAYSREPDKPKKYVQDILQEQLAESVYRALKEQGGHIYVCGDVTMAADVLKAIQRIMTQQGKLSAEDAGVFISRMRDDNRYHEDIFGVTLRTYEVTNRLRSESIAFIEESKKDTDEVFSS

Row | SMILES | Activity
1 | c1cn(-c2ccc(Oc3nccc(Oc4ccc5c(c4)OCO5)n3)cc2)cn1 | inactive

Target: Nitric oxide synthase, inducible (Homo sapiens, UniProt P35228)
Sequence (P35228 whole entry): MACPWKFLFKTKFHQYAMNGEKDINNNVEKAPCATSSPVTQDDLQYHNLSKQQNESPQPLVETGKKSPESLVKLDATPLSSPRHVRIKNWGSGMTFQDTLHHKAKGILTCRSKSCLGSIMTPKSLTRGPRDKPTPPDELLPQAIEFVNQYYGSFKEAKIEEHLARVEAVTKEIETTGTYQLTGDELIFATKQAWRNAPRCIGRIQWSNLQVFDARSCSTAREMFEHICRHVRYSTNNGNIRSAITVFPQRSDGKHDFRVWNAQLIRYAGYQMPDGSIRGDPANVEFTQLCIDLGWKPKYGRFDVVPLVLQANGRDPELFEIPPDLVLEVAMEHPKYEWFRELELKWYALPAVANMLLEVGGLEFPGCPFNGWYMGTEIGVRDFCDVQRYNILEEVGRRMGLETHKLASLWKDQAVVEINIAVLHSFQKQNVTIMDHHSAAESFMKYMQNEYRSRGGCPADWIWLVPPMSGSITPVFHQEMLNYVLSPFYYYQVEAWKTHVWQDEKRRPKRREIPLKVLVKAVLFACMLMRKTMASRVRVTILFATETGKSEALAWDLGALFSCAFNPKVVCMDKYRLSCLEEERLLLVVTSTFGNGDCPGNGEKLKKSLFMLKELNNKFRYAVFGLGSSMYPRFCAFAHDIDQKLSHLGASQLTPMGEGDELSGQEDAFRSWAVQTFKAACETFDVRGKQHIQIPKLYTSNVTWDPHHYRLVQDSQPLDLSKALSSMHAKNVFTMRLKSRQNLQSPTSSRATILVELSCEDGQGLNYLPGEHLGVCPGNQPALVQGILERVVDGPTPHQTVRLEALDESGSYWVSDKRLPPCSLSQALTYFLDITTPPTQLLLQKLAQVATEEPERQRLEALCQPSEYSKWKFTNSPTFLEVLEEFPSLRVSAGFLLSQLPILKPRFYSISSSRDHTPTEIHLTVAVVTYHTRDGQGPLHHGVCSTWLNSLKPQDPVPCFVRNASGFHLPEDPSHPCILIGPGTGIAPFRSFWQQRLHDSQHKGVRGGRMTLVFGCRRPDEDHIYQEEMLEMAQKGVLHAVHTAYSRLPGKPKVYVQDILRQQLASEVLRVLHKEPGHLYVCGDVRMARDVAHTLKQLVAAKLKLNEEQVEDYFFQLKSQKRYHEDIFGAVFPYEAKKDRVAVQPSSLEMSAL
Assay: Inhibition of iNOS in human A172 cells after 18 to 24 hrs
Type: cell-based, A 172

Row | SMILES | IC50 [nM]
2 | Cc1cc(Oc2ccc3c(c2)OCO3)nc(Oc2ccc(-n3ccnc3)cc2)n1 | 90
3 | CN(C)CCCN(C)c1cc(Oc2ccc(-n3ccnc3)cc2)nc(Cc2ccc3c(c2)OCO3)n1 | 220
4 | Cc1cnc(Oc2ccc(-n3ccnc3)cc2)nc1Oc1ccc2c(c1)OCO2 | 130
5 | Clc1cc(Oc2ccc(-n3ccnc3)cc2)nc(Cc2ccc3c(c2)OCO3)n1 | > 10000
6 | c1cn(-c2ccc(Oc3cc(Oc4ccc5c(c4)OCO5)ncn3)cc2)cn1 | > 10000
7 | c1cc(Oc2ccc(-n3ccnc3)cc2)nc(Oc2ccc3c(c2)OCO3)c1 | 78
8 | Cc1cc(Oc2ccc3c(c2)OCO3)nc(Oc2ccc(-n3ccnc3)cc2F)n1 | 92
9 | Cc1cc(Oc2ccc3c(c2)OCO3)nc(Oc2ccc(-n3ccnc3)cc2C(F)(F)F)n1 | 220
10 | c1cn(-c2ccc(Oc3ccnc(Oc4ccc5c(c4)OCO5)n3)cc2)cn1 | 74
11 | c1cn(-c2ccc(Oc3cc(N4CCOCC4)nc(Cc4ccc5c(c4)OCO5)n3)cc2)cn1 | 830
12 | Cc1cc(Oc2ccc3c(c2)OCO3)nc(Oc2ccc(-n3ccnc3)cc2Cl)n1 | 19
13 | Cc1c(F)c(Oc2ccc(-n3ccnc3)cc2)nc(Oc2ccc3c(c2)OCO3)c1F | 450
14 | c1cn(-c2ccc(Oc3nccc(Oc4ccc5c(c4)OCO5)n3)cc2)cn1 | 55

Target: T1, Nitric oxide synthase 3 (Homo sapiens) (UniProt P29474)
T1 sequence (whole entry): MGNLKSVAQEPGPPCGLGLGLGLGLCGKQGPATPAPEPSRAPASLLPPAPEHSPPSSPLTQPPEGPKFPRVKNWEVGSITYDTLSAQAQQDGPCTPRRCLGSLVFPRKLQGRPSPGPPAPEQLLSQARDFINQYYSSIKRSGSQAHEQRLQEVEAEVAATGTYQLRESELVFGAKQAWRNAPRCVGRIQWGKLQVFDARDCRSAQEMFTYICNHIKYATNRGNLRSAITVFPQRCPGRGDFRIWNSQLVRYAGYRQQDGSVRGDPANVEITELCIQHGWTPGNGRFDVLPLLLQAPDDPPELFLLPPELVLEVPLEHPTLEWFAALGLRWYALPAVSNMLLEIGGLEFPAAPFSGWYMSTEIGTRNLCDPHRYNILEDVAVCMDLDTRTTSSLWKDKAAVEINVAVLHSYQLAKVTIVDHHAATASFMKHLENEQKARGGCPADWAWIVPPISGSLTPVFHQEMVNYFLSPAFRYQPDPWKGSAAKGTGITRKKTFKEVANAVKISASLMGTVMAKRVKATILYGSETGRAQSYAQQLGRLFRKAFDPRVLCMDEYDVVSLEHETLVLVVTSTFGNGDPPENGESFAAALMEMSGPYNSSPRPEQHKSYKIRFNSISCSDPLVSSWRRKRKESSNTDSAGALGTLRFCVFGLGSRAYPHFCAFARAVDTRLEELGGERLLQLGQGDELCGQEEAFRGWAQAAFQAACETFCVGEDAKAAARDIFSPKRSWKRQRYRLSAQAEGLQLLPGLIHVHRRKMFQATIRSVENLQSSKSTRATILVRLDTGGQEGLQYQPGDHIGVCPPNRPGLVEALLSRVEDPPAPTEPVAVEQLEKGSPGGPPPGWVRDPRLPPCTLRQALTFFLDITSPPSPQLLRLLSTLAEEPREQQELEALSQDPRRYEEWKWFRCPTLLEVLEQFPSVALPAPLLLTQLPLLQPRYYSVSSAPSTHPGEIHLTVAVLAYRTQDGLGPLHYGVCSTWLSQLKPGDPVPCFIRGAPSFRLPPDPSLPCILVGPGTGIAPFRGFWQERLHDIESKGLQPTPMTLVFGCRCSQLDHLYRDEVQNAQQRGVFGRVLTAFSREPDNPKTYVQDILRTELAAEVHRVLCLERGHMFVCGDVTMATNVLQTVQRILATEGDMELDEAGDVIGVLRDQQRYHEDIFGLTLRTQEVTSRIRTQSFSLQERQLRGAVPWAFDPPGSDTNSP
Assay: Inhibition of eNOS

Row | SMILES | Activity
15 | c1cn(-c2ccc(Oc3nccc(Oc4ccc5c(c4)OCO5)n3)cc2)cn1 | inactive
